Measured values: PMC8059291 (Antiviral Research, 2021)

Target: SARS-CoV-2 RdRp (Severe acute respiratory syndrome coronavirus 2, UniProt P0DTD1)
Assay: CoV-Gluc RNA levels by real-time RT-PCR after NA treatment
Type: cell-based
Details: HEK293T, 1 μM, 24 h

CCC(CC)COC(=O)[C@H](C)N[P@](=O)(OC[C@H]1O[C@@](C#N)(c2ccc3c(N)ncnn23)[C@H](O)[C@@H]1O)Oc1ccccc1 [Remdesivir]
reduction of minus-strand Gluc RNA: 60%
